Measurements from patent publication US20110039763A1, “TARGETED ANTIMICROBIAL MOIETIES” (C3 JIAN, INC., priority 2009, published 2011).

Legend:
microorganisms [1] = assay: Morphology, biofilm and growth disrupting peptides (Table 5); format: cell-based; parameters: key: A: Peptide aggregates; B: Less hyphal formation; Clumps; Diffuse clumps and small polyps; F: Diffuse growth; H: Thin; I: Growth inhibition; Microcolony formation; Rippled; Small polyps; Thick; W: Halo formation on top, microlonies on bottom
From the text: In certain embodiments peptides that induce alterations in phenotype or other biological activities can also be used as antimicrobial effector moieties.

microorganisms [2] = assay: Peptide activities: targeting/binding, antimicrobial, growth or phenotype altering (Tables 7, 8); format: cell-based; settings: peptides having multiple activities
From the text: In certain embodiments, peptides described herein can have multiple activities. Thus for example, a peptide can have both binding/targeting activity and antimicrobial activity. Such peptides can be used, e.g., in a chimeric construct, for any or all of these properties. Thus, for example, a peptide designated “B” in Table 8 can be used as a targeting peptide. If it is also designated G or M it can also be used for antimicrobial activity.
Table 8. Peptides Having Multiple Activities. B: Targeting/Binding Activity; M: Antimicrobial Activity; G: GROWTH or Phenotype Altering.

Substance | Organism, effect: B. subtilis (microorganisms [1]; B. subtilis) | Organism, effect: C. jeikeium (microorganisms [1]) | Organism, effect: C. jejuni (microorganisms [1]) | Organism, effect: M. luteus (microorganisms [1]) | Organism, effect: MRSA (microorganisms [1]) | Organism, effect: S. epidermidis (microorganisms [1]) | Organism, effect: S. pneumoniae (microorganisms [1]) | Activities (microorganisms [2]) | Organism, effect: E. coli (microorganisms [1]) | Organism, effect: E. faecalis (microorganisms [1]) | Organism, effect: P. aeruginosa (microorganisms [1])
PF-145: peptide having multiple activities (chain 1 GIVLTGRAGLVSGACSMALGVGLG; chain 2 GIVLTGRAGLVSGACSMALGVGLG; Peptide with targeting and/or antimicrobial activity) | B. subtilis (C) | C. jeikeium (R) | C. jejuni (R) | M. luteus (A) | MRSA (M) | S. epidermidis (D) | S. pneumoniae (R) | G B | – | – | –
PF-157: peptide having multiple activities (HTAVVWLAGVSGCVALSHCEPA; Peptide with targeting and/or antimicrobial activity) | – | – | – | – | – | S. epidermidis (M) | – | G B | – | – | –
PF-178: peptide having multiple activities (EVYSSPTNNVAITVQNN; Peptide with targeting and/or antimicrobial activity) | – | – | – | – | MRSA (M) | S. epidermidis (D) | S. pneumoniae (D) | G B | E. coli (C) | – | –
PF-190: peptide having multiple activities (HFILRKPLLFMIHSLKTGPLDRF; Peptide with targeting and/or antimicrobial activity) | – | C. jeikeium (R) | – | – | – | S. epidermidis (C) | – | G B | – | – | –
PF-196: peptide having multiple activities (TTARYIRRQCHTSITPLSQG; Peptide with targeting and/or antimicrobial activity) | – | C. jeikeium (R) | – | – | – | S. epidermidis (C) | – | G B | – | – | –
PF-203: peptide having multiple activities (SWKCHHLAI; Peptide with targeting and/or antimicrobial activity) | – | C. jeikeium (R) | – | – | – | S. epidermidis (A) | – | G B | – | – | –
PF-347: peptide having multiple activities (GIFTGVTVVVSLKHC; Peptide with targeting and/or antimicrobial activity) | – | – | – | – | MRSA (C) | S. epidermidis (C) | – | G B | E. coli (C) | E. faecalis (C) | –
PF-354: peptide having multiple activities (FTFSKCRASNGRGFGTLWL; Peptide with targeting and/or antimicrobial activity) | – | – | – | – | MRSA (H) | – | – | G B | – | – | –
PF-355: peptide having multiple activities (chain 1 WIAIGLLLYFSLKNQ; chain 2 WIAIGLLLYFSLKNQ; Peptide with targeting and/or antimicrobial activity) | – | – | C. jejuni (D) | – | MRSA (A) | S. epidermidis (C) | S. pneumoniae (D) | G B | E. coli (C) | E. faecalis (D) | P. aeruginosa (A)
PF-356: peptide having multiple activities (chain 1 VSIKIGAIVIGMIGLMELLTE; chain 2 VSIKIGAIVIGMIGLMELLTE; Peptide with targeting and/or antimicrobial activity) | – | – | C. jejuni (D) | – | MRSA (C) | S. epidermidis (S) | S. pneumoniae (R) | G B | – | E. faecalis (R) | P. aeruginosa (A)
PF-357: peptide having multiple activities (chain 1 MLTIIIGFIFWTMTLMLGYLIGEREGRKHE; chain 2 MLTIIIGFIFWTMTLMLGYLIGEREGRKHE; Peptide with targeting and/or antimicrobial activity) | – | – | – | M. luteus (C) | MRSA (M) | S. epidermidis (M) | S. pneumoniae (M) | G B | – | – | –
PF-374: peptide having multiple activities (chain 1 HLFFVKGMFILCQKNQINDE; chain 2 HLFFVKGMFILCQKNQINDE; Peptide with targeting and/or antimicrobial activity) | – | – | – | – | MRSA (M) | S. epidermidis (C) | – | G B | E. coli (C) | E. faecalis (C) | –
PF-376: peptide having multiple activities (chain 1 MTVFEALMLAIAFATLIVKISNKNDKK; chain 2 MTVFEALMLAIAFATLIVKISNKNDKK; Peptide with targeting and/or antimicrobial activity) | – | – | – | – | MRSA (C) | S. epidermidis (C) | – | G B | E. coli (C) | E. faecalis (C) | –
PF-379: peptide having multiple activities (chain 1 VFVVLFIIYLASKLLTKLFPIKK; chain 2 VFVVLFIIYLASKLLTKLFPIKK; Peptide with targeting and/or antimicrobial activity) | – | – | – | – | MRSA (C) | S. epidermidis (C) | – | G B | E. coli (C) | E. faecalis (C) | –
PF-380: peptide having multiple activities (chain 1 KKIIPLITLFVVTLVG; chain 2 KKIIPLITLFVVTLVG; Peptide with targeting and/or antimicrobial activity) | – | – | C. jejuni (D) | – | MRSA (D) | S. epidermidis (C) | S. pneumoniae (D) | G B | E. coli (C) | E. faecalis (C) | P. aeruginosa (A)
PF-386: peptide having multiple activities (chain 1 FTLTLITTIVAILNYKDKKK; chain 2 FTLTLITTIVAILNYKDKKK; Peptide with targeting and/or antimicrobial activity) | – | – | – | – | MRSA (C) | S. epidermidis (C) | – | G B | E. coli (C) | E. faecalis (C) | –
PF-398: peptide having multiple activities (chain 1 ILVVLAGILLVVLSYVGISKFKMNC; chain 2 ILVVLAGILLVVLSYVGISKFKMNC; Peptide with targeting and/or antimicrobial activity) | – | – | – | – | MRSA (C) | S. epidermidis (C) | – | G B | E. coli (C) | E. faecalis (C) | –
PF-399: peptide having multiple activities (chain 1 FPIISALLGAIICIAIYSFIVNRKA; chain 2 FPIISALLGAIICIAIYSFIVNRKA; Peptide with targeting and/or antimicrobial activity) | – | – | – | – | MRSA (C) | S. epidermidis (C) | – | G B | E. coli (C) | E. faecalis (C) | –
PF-407: peptide having multiple activities (chain 1 KPKNKKEKTVISYEKLLSMY; chain 2 KPKNKKEKTVISYEKLLSMY; Peptide with targeting and/or antimicrobial activity) | – | – | – | – | MRSA (C) | S. epidermidis (M) | S. pneumoniae (R) | G B | – | E. faecalis (R) | –
